Data on eleven molecules can be found in patent publication US8206955B2, “Production of monatin and monatin precursors” (Cargill, Incorporated, priority 2003, dated 2012).

For one data set, the system named is E. coli BL21(DE3). Kind of data set: effect of Tweens on growth of E. coli in shake flasks. As to conditions: for effect on growth rate: 0.2% Tween in the presence of 10 μg/mL ampicillin, followed over 48 h.
The nature of data set [1]: aldolase activity assay, indole-3-pyruvate and pyruvate to MP. Type of data set: biochemical. On the procedure:
The proteins were assayed for activity using indole-3-pyruvate and sodium pyruvate as substrates. The assay mixture contained 100 mM Tris-HCl (pH 7-pH 8.9), 0-8 mM MgCl2, 3 mM potassium phosphate (pH 8), and 6 mM of each substrate in 1 mL. The reaction was started by adding varying amounts of polypeptide (for example from 10 to 100 μg), and was incubated at 25° C.-37° C. for 30 minutes, filtered, and then frozen at −80° C.
There is no evidence that magnesium and phosphate are required for activity for this enzyme. However, the literature reports performing the assays in sodium phosphate buffer, and the enzyme reportedly is bifunctional and has activity on phosphorylated substrates such as 2-keto-3-deoxy-6-phosphogluconate (KDPG). The enzymatic assays were performed as described above, and in some instances the phosphate was omitted. […] In some cases the level of MP produced by KHG was almost identical to the amount produced by magnesium and phosphate alone. […] The Bacillus enzyme had the highest activity, approximately 20-25% higher activity than the magnesium and phosphate alone, as determined by LC/MS/MS (see Example 6). […] All three enzymes have the active site glutamate (position 43 in B. subtilis numbering system) as well as the lysine required for Shiff base formation with pyruvate (position 130); however, the B. subtilis enzyme contains a threonine in position 47, an active site residue, rather than arginine. The B. subtilis KHG is smaller and appears to be in a cluster distinct from the S. meliloti and E. coli enzymes, with other enzymes having the active site threonine. The differences in the active site may be the reason for the increased activity of the B. subtilis enzyme.

Data set [2] deals with C. testosteroni ProA aldolase and L-aspartate aminotransferase (AspC). In words: production of monatin utilizing alternative C3-carbon sources. Type of data set: biochemical. On the procedure: The reaction mixture consisted of 50 mM Tris-Cl pH 8.3, 2 mM MgCl2, 200 mM C3 carbon source, 5 mM alpha-ketoglutarate, sodium salt, 0.05 mM pyridoxal phosphate, deaerated water to achieve a final volume of 0.5 mL after the addition of the enzymes, 3 mM potassium phosphate pH 7.5, 25 μg of crude recombinant C. testosteroni ProA aldolase as prepared in Example 2, 500 μg of crude L-aspartate aminotransferase (AspC) as prepared in Example 1, and solid tryptophan to afford a concentration of >60 mM (saturated; some undissolved throughout the reaction). The reaction mix was incubated at 30° C. for 30 minutes with mixing. Serine, alanine, and aspartate were supplied as 3-carbon sources. Assays were performed with and without secondary PLP enzymes (purified) capable of performing beta-elimination and beta-lyase reactions (tryptophanase (TNA), double mutant tryptophanase, β-tyrosinase (TPL)).

Another data set can be described thus: stability of MP. Type of data set: physicochemical. The text has this:
Any effect of additional tryptophan and pyruvate was not detectable, except in the case of Comamonas, where a benefit was noted. […] It is not known whether tryptophan and pyruvate are efficiently taken up in these wildtype organisms, or what changes in gene expression occur as a result of adding large concentrations of these substrates to the medium. While the parahydroxybenzoate substrate is only known to induce the aldolase in Comamonas, it appears to have improved the level of monatin produced in S. meliloti as well.

The next data set concerns S. meliloti. In words: plate assay using monatin as the main carbon and energy source. Type of data set: cell-based. As to conditions: M9 medium + monatin (0.1-0.2%), 26° C. As for the experimental part: (§1) Organisms that can synthesize monatin can be detected by screening for growth on plates in which monatin (or the monatin precursor (MP)) is the main carbon and energy source. Screening by this method requires (1) that the synthetic pathway be reversible, allowing the product, monatin, to be metabolized by this route and (2) that the organism has a transport system that is able to import monatin or MP. S. meliloti, P. straminea, and C. testosteroni were tested for their ability to grow on minimal medium plates which contained monatin as the primary carbon and energy source.
(§2) Plates containing M9 minimal medium or Rhizobium minimal medium were prepared with 0.01% casamino acids and 0.1-0.2% carbon source (glucose or purified monatin). Negative control plates contained casamino acids but no additional carbon source. S. meliloti, P. straminea, and C. testosteroni were grown in rich media to OD 2.1-2.7 and diluted 1000-fold with sterile 1× phosphate-buffered saline (PBS). A volume of 1-10 μL was used for plating. The plates were incubated at 26° C. for several days. […] The experiments were repeated and C. testosteroni was grown in both NB as well as PHB media prior to induction. Again using M9 media for plating, the S. meliloti appeared to grow better with monatin as the carbon source than the other organisms. […] In addition, at the higher dilution (10^−6), the use of PHB-grown inoculum increased the number and size of colonies obtained compared to the NB-grown inoculum.

The subject of the next data set is C. testosteroni. The description is as above. Type of data set: cell-based. As for the experimental part: as §1, §2
Where [3] appears, read: 200 mM C3 carbon source, additional PLP enzyme: None.
The mark [4] stands for this setting: additional PLP enzyme: 11 μg wildtype TNA (1 U).
Setting [5] is: additional PLP enzyme: 80 μg double mutant TNA.

Protocol for E. coli BL21(DE3): The affect of several detergent Tweens on the growth rate of E. coli BL21(DE3) was studied in shake flask experiments. Either Tween-20, -40, 60, or -80 was added at 0.2% in the presence of 10 μg/mL ampicillin and the growth was followed over 48 h.

For the molecule Tween-60, the “effect on growth rate” value with E. coli BL21(DE3) was “intermediate in affect”.

Take `Cc1ncc(COP(=O)(O)O)c(C=O)c1O` [PLP, pyridoxal 5′-phosphate, reference compound]: the “formation of MP from indole-3-pyruvate and pyruvate (in words)” value in data set [1] is on record as “did not appear to detectably convert indole-3-pyruvate to MP”. Consider “C. testosteroni aldolase: 4-hydroxy-4-methyl-2-oxoglutarate pyruvate lyase (ProA aldolase) from Comamonas testosteroni (SEQ ID NO: 66)”, for which the “amount of MP produced” value in data set [1] (standard assay using 20 μg of purified protein, based on tryptophan standards) was 10-40 μg per one mL reaction. For the molecule `C[C@H](N)C(=O)O` [alanine], the “Relative Activity” value in data set [2] (setting [3]) stood at 32%; in data set [2] (setting [4]), 41.7%; in data set [2] (setting [5]), 43.9%.

With Tween 40, the inhibition to growth entry in the data set with E. coli BL21(DE3) (0.2% Tween) is given as “least inhibition to growth”. Further, in the data set on E. coli BL21(DE3), the “effect on growth rate” value is recorded as “affected the growth rate the least”. For `N[C@@H](CO)C(=O)O` [serine], the “Relative Activity” value was found to be 3% in data set [2] (setting [3]), 5.1% in data set [2] (setting [4]) and 4.6% in data set [2] (setting [5]).

Turning to Tween-80, in the data set on E. coli BL21(DE3), the “effect on growth rate” value is “intermediate in affect”. As to “polyoxyethylene 20-Sorbitan monolaurate [Tween 20]”, in the data set with E. coli BL21(DE3) (0.2% Tween), the “final OD600 relative to cultures grown in the presence of Tween 40” value is “slightly over half”. In addition, the “effect on growth rate” value in the data set on E. coli BL21(DE3) is recorded as “about half”. With tryptophanase, in data set [1], the “formation of MP from indole-3-pyruvate and pyruvate (in words)” value is on record as “did not appear to detectably convert indole-3-pyruvate to MP”. With `O=C(O)C(=O)CC(O)(Cc1c[nH]c2ccccc12)C(=O)O` (centres unmarked) [MP, 2-hydroxy 2-(indole-3-ylmethyl)-4-keto glutaric acid], the stability result in the data set “stability of MP” (aqueous solution) is recorded as “unstable in an aqueous solution”; in “stability of MP” (fermentation broth and cell extracts) it was “not stable in this particular matrix”. Regarding `NC(CC(O)(Cc1c[nH]c2ccccc12)C(=O)O)C(=O)O` (racemic) [monatin, 2-hydroxy-2-(indol-3-ylmethyl)-4-aminoglutaric acid], the “growth with monatin as carbon source” value is “exhibited better growth than the other strains tested” with S. meliloti; “exhibited some growth” in the data set with C. testosteroni (M9 media + monatin); “grew better with monatin as the carbon and energy source than it did with glucose” in the data set on C. testosteroni (Rhizobium minimal medium).
